Values after ≈ are worked out from the molar mass of the structure shown.
How the values were obtained:
[1] = target: hERG (KCNH2) (Homo sapiens, UniProt Q12809); assay: Displacement of [3H]dofetilide from human ERG expressed in HEK293 cells at 10 uM
[2] = Apparent permeability from basolateral to apical side in MDCK cells; conditions: dog
[3] = Apparent permeability from apical to basolateral side in MDCK cells; conditions: dog
[4] = Bioavailability in Sprague-Dawley rat at 1 mg/kg, iv and 5 mg/kg, po; conditions: in vivo
[5] = target: Voltage-gated inwardly rectifying potassium channel KCNH2 (Homo sapiens, UniProt Q12809); assay: Inhibition of human ERG by patch-clamp technique
[6] = Half life in Sprague-Dawley rat at 1 mg/kg, iv and 5 mg/kg, po; conditions: in vivo
[7] = Clearance in Sprague-Dawley rat plasma at 1 mg/kg, iv and 5 mg/kg, po
[8] = in vivo; conditions: Sprague-Dawley, rat, plasma, po, 5 mg/kg
Description: AUC in Sprague-Dawley rat at 5 mg/kg, po

[9] = Volume of distribution at steady state in Sprague-Dawley rat at 1 mg/kg, iv and 5 mg/kg, po; conditions: in vivo
[10] = in vivo; conditions: Sprague-Dawley, rat, po, 5 mg/kg
Description: Cmax in Sprague-Dawley rat at 5 mg/kg, po

[11] = target: Cytochrome P450 3A4 (Homo sapiens, UniProt P08684); assay: Inhibition of CYP3A4; format: ADME
[12] = Volume of distribution at steady state in cynomolgus monkey at 1 mg/kg, iv and 1 mg/kg, po; format: ADME, organism-based, Macaca fascicularis; conditions: in vivo, read-out: Vdss
[13] = Bioavailability in cynomolgus monkey at 1 mg/kg, iv and 1 mg/kg, po; format: ADME, organism-based, Macaca fascicularis; conditions: in vivo
[14] = Half life in dog at 1 mg/kg, iv and 1 mg/kg, po; format: ADME, organism-based, Canis lupus familiaris; conditions: in vivo
[15] = target: Cytochrome P450 2C9 (Homo sapiens, UniProt P11712); assay: Inhibition of CYP2C9; format: ADME
[16] = target: T1, Dipeptidyl peptidase 3 (Homo sapiens, UniProt Q9NY33); assay: Inhibition of DPP3 in human erythrocytes; format: cell-based
T1 sequence (Q9NY33 whole entry): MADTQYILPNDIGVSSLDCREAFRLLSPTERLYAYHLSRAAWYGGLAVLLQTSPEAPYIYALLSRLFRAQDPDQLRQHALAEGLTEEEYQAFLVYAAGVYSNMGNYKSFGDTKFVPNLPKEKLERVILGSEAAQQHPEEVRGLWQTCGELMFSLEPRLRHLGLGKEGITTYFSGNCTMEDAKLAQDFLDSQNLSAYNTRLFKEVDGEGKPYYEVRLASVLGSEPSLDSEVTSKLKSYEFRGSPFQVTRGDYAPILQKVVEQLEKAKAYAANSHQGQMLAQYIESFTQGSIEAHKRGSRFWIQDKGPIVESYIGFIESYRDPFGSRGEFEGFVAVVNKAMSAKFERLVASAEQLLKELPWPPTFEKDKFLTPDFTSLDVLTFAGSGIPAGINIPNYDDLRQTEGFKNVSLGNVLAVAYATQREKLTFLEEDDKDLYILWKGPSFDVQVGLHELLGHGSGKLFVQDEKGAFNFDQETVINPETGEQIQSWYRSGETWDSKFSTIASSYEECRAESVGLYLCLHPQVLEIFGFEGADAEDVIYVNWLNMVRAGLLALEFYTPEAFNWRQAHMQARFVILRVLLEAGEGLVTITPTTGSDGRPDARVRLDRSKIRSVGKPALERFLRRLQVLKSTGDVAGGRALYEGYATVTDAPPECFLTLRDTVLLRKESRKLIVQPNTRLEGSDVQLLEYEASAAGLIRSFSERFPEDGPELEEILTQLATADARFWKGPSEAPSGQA

[17] = Fraction unbound in rat; format: ADME
[18] = Clearance in dog plasma at 1 mg/kg, iv and 1 mg/kg, po; format: ADME, organism-based, Canis lupus familiaris
[19] = target: T2, Prolyl endopeptidase (Homo sapiens, UniProt P48147); assay: Inhibition of POP
T2 sequence (P48147 whole entry): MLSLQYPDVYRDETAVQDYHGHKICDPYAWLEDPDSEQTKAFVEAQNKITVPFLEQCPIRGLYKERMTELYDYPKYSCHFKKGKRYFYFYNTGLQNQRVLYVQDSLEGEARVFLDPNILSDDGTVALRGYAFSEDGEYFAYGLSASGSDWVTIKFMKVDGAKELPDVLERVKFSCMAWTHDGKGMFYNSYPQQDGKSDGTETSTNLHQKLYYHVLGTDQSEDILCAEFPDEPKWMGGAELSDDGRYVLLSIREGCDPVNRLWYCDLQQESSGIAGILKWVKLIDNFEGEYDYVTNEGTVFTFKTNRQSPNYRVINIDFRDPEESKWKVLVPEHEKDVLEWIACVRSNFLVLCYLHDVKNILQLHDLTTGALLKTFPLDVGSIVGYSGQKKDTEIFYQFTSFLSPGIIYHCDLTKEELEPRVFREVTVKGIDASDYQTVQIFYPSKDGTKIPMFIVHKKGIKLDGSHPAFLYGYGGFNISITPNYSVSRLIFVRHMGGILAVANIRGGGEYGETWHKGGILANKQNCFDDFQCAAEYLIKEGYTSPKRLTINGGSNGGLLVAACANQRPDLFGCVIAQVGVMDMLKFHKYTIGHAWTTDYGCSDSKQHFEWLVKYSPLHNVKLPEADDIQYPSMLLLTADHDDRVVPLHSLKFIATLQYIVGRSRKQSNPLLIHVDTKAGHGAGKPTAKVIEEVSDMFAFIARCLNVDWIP

[20] = organism: Rattus norvegicus; assay: Ex vivo inhibition of DPP4 in Sprague-Dawley rat; format: functional, organism-based
[21] = target: Cytochrome P450 2C19 (Homo sapiens, UniProt P33261); assay: Inhibition of CYP2C19; format: ADME
[22] = Bioavailability in dog at 1 mg/kg, iv and 1 mg/kg, po; format: ADME, organism-based, Canis lupus familiaris; conditions: in vivo
[23] = Cmax in cynomolgus monkey at 1 mg/kg, po; format: ADME, organism-based, Macaca fascicularis; set-up: dose 1 mg/kg, route oral; conditions: in vivo
[24] = Volume of distribution at steady state in dog at 1 mg/kg, iv and 1 mg/kg, po; format: ADME, organism-based, Canis lupus familiaris; conditions: in vivo, read-out: Vdss
[25] = AUC in cynomolgus monkey at 1 mg/kg, po; format: ADME, organism-based, Macaca fascicularis; set-up: dose 1 mg/kg, route oral; conditions: plasma
[26] = Clearance in cynomolgus monkey plasma at 1 mg/kg, iv and 1 mg/kg, po; format: ADME, organism-based, Macaca fascicularis
[27] = Fraction unbound in dog; format: ADME, Canis lupus familiaris
[28] = target: Cytochrome P450 2D6 (Homo sapiens, UniProt P10635); assay: Inhibition of CYP2D6; format: ADME
[29] = Cmax in dog at 1 mg/kg, po; format: ADME, organism-based, Canis lupus familiaris; set-up: dose 1 mg/kg, route oral; conditions: in vivo
[30] = Terminal half life in human at 0.3 to 300 mg; format: ADME, organism-based; conditions: in vivo, read-out: beta t1/2 (converted)
[31] = Fraction unbound in monkey; format: ADME, Macaca mulatta; conditions: rhesus monkey
[32] = AUC in dog at 1 mg/kg, po; format: ADME, organism-based, Canis lupus familiaris; set-up: dose 1 mg/kg, route oral; conditions: plasma
[33] = Fraction unbound in human; format: ADME
[34] = Half life in cynomolgus monkey at 1 mg/kg, iv and 1 mg/kg, po; format: ADME, organism-based, Macaca fascicularis; conditions: in vivo
[35] = target: T3, Cytochrome P450 1A2 (Homo sapiens, UniProt P05177); assay: Inhibition of CYP1A2; format: ADME
T3 sequence (P05177 whole entry): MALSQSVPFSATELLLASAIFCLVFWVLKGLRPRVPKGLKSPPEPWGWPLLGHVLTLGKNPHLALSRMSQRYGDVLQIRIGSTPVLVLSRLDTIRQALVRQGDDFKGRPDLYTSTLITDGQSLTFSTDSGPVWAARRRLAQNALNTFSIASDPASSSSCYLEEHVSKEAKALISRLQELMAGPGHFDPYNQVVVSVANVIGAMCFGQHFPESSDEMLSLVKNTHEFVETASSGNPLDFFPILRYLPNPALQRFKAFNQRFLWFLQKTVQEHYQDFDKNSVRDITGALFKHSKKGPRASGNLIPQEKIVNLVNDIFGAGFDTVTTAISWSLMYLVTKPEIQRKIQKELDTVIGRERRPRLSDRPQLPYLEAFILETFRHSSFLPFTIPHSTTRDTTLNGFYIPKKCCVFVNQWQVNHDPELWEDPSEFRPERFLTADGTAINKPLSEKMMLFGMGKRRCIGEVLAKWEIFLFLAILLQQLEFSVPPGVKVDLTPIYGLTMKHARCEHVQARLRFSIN

[36] = Tmax in human at 0.3 to 300 mg; format: ADME, organism-based; conditions: in vivo
[37] = target: Dipeptidyl peptidase 2 (Homo sapiens, UniProt Q9UHL4); assay: Inhibition of human recombinant DPP2
[38] = target: Dipeptidyl peptidase 8 (Homo sapiens, UniProt Q6V1X1); assay: Inhibition of human recombinant DPP8
[39] = HEK293 cells that express human ERG, probe [3H]dofetilide

Chain of Voltage-gated inwardly rectifying potassium channel KCNH2 (Q12809 whole entry): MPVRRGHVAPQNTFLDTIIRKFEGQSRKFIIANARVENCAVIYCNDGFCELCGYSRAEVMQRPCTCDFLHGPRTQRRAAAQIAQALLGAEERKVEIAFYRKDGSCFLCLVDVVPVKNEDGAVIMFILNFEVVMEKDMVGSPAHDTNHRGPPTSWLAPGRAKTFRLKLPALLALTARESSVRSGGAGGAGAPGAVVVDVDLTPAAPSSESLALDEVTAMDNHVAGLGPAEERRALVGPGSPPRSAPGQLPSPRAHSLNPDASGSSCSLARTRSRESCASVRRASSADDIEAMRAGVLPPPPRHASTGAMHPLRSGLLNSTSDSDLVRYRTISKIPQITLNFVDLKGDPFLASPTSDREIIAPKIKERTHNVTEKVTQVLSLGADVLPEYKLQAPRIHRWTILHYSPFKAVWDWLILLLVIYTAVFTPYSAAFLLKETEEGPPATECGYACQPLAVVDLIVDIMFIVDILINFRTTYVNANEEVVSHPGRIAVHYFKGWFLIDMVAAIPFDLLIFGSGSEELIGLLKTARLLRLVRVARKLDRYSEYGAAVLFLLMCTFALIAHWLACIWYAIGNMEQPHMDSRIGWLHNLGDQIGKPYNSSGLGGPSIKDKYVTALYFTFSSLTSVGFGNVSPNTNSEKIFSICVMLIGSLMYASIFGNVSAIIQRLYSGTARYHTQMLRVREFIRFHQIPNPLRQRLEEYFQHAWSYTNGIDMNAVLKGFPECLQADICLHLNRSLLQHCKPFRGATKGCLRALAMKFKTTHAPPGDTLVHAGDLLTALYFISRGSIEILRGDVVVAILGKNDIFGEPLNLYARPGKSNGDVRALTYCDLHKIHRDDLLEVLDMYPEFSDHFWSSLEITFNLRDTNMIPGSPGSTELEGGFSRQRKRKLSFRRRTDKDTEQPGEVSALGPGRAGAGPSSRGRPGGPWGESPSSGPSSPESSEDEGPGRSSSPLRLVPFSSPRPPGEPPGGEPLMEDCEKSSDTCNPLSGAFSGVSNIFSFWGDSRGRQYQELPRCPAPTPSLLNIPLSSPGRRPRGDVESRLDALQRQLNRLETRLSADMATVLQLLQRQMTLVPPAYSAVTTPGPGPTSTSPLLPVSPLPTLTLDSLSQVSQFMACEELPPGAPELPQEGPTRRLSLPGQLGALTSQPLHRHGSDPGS
Chain of hERG (KCNH2) (Q12809 whole entry): as above
Chain of Cytochrome P450 2C19 (P33261 whole entry): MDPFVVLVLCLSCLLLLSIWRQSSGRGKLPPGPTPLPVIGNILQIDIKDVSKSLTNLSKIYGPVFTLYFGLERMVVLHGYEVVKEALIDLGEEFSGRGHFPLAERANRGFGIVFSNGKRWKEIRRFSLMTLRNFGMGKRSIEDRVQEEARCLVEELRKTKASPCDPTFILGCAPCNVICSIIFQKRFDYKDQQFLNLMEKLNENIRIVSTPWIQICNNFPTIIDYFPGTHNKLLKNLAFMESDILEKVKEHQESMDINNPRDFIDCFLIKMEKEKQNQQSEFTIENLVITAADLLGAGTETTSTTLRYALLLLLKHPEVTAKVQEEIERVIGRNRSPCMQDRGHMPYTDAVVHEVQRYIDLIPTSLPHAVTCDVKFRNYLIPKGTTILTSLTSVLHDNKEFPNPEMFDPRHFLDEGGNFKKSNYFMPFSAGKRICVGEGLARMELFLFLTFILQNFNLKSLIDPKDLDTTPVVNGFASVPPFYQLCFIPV
Chain of Cytochrome P450 3A4 (P08684 whole entry): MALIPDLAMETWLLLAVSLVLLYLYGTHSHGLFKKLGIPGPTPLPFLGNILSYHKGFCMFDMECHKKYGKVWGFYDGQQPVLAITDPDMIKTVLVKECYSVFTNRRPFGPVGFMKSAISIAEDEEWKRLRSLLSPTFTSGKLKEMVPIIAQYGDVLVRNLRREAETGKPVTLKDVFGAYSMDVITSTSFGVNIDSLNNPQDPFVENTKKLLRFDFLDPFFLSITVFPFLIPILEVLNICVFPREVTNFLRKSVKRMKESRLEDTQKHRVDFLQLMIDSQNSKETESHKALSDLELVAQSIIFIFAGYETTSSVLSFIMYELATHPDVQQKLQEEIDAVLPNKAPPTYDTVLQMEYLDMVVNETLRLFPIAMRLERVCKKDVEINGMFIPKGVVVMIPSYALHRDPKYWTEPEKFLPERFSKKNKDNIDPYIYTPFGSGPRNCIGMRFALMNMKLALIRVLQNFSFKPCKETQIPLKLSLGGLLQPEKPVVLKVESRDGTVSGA
Chain of Dipeptidyl peptidase 8 (Q6V1X1 whole entry): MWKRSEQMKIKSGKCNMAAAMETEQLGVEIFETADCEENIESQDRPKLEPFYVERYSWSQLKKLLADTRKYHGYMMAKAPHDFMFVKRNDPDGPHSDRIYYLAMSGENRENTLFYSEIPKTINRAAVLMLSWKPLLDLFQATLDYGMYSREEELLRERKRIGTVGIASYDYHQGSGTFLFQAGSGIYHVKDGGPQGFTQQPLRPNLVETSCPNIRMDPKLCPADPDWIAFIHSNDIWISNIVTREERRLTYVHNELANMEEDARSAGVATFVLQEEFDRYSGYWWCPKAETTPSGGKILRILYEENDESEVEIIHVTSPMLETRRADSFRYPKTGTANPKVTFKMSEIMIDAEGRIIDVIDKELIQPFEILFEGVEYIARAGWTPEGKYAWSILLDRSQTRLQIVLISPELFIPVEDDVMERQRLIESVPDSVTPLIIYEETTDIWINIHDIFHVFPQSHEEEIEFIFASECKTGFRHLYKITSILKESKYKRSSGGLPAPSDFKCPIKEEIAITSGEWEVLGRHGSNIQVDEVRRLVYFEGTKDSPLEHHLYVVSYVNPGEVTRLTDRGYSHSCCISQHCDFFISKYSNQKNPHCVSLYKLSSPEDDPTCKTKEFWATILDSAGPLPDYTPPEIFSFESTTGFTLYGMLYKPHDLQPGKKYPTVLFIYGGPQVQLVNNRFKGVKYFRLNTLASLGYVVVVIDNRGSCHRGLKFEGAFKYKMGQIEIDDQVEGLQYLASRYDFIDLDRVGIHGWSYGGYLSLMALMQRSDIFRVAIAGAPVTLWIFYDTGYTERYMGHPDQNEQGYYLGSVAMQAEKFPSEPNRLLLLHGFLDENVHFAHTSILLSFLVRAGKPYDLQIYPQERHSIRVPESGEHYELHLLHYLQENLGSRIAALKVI
Chain of Cytochrome P450 2D6 (P10635 whole entry): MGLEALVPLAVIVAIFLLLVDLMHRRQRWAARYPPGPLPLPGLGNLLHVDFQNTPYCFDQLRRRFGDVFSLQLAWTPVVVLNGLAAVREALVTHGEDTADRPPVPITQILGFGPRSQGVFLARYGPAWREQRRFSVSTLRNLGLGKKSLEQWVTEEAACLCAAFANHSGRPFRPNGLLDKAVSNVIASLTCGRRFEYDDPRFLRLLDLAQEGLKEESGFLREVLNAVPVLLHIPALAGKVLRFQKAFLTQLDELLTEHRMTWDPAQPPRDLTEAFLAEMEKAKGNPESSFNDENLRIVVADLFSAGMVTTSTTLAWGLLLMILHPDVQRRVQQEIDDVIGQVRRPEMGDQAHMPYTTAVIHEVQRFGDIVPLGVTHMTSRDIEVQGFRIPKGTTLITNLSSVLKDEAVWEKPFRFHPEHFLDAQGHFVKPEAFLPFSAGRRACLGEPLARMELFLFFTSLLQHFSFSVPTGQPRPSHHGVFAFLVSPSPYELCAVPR

O=C([C@@H]1C[C@H](N2CCN(c3nc4cccnc4o3)CC2)CN1)N1CCC(F)(F)C1
inhibition at 10 µM [1, 39]: 7.4%

O=C([C@@H]1C[C@H](N2CCN(c3noc4ccccc34)CC2)CN1)N1CCC(F)(F)C1
inhibition at 10 µM [1, 39]: 26.7% | Papp B→A [2]: 11.2 ×10⁻⁶ cm/s | Papp A→B [3]: 18.6 ×10⁻⁶ cm/s

O=C([C@@H]1C[C@H](N2CCN(c3ncccn3)CC2)CN1)N1C[C@@H](F)[C@H](F)C1
inhibition at 10 µM ([1]; hek293): -1.6%

O=C([C@@H]1C[C@H](N2CCN(c3ncccn3)CC2)CN1)N1C[C@@H](F)[C@@H](F)C1
inhibition at 10 µM ([1]; hek293): 7.2% | bioavailability [4]: 93% | IC50 [5]: 54 µM | half-life [6]: 2.3 h | clearance [7]: 27 mL/min/kg | AUC [8]: 3950 ng·h/mL | Vd [9]: 1.9 L/kg | Cmax [10]: 1820 ng/mL

O=C([C@@H]1C[C@H](N2CCN(c3ncccn3)CC2)CN1)N1CCC(F)(F)C1 [GOSOGLIPTIN]
IC50 [11]: > 30 µM | Vd [12]: 1 L/kg | inhibition at 10 µM ([1]; hek293): 14.9% | bioavailability [13]: 71% | half-life [14]: 7.6 h | IC50 [15]: > 30 µM | IC50 [16]: > 30 µM | bioavailability [4]: 109% | IC50 [5]: 126 µM | half-life [6]: 2.5 h | fraction unbound [17]: 0.8 | clearance [7]: 38 mL/min/kg | clearance [18]: 3.7 mL/min/kg | IC50 [19]: > 30 µM | AUC [8]: 2400 ng·h/mL | Emax [20]: 98% | IC50 [20]: 1.3 ng/mL (≈ 3.55 nM) | IC50 [21]: > 30 µM | bioavailability [22]: 95% | Cmax [23]: 517 ng/mL | Vd [24]: 0.7 L/kg | AUC [25]: 843 ng·h/mL | clearance [26]: 7.6 mL/min/kg | fraction unbound [27]: 0.8 | IC50 [28]: > 30 µM | Cmax [29]: 1530 ng/mL | Vd [9]: 1.9 L/kg | half-life [30]: 15.1 h | fraction unbound [31]: 0.8 | Cmax [10]: 1410 ng/mL | AUC [32]: 7160 ng·h/mL | fraction unbound [33]: 0.8 | half-life [34]: 7.6 h | IC50 [35]: > 30 µM | Tmax [36]: 0.5 h

O=C([C@@H]1C[C@H](N2CCN(c3nc4cnccc4o3)CC2)CN1)N1CCC(F)(F)C1
inhibition at 10 µM [1, 39]: 8.1%

O=C([C@@H]1C[C@H](N2CCN(c3ncccn3)CC2)CN1)N1CC(F)C1
IC50 [37]: > 30 µM | IC50 [38]: > 30 µM

N#Cc1cccnc1N1CCN([C@@H]2CN[C@H](C(=O)N3CCC(F)(F)C3)C2)CC1
inhibition at 10 µM [1, 39]: -7.3% | bioavailability [4]: 20% | IC50 [5]: > 10 µM | half-life [6]: 1.5 h | clearance [7]: 61 mL/min/kg | AUC [8]: 276 ng·h/mL | Papp B→A [2]: 13.5 ×10⁻⁶ cm/s | Papp A→B [3]: 10.4 ×10⁻⁶ cm/s | Vd [9]: 1.8 L/kg | Cmax [10]: 237 ng/mL

— ChEMBL document CHEMBL1138584, “(3,3-Difluoro-pyrrolidin-1-yl)-[(2S,4S)-(4-(4-pyrimidin-2-yl-piperazin-1-yl)-pyrrolidin-2-yl]-methanone: a potent, selective, orally active dipeptidyl peptidase IV inhibitor” (Bioorg Med Chem Lett, 2009)
